Our source for the MIC and ED50 values is ChEMBL document CHEMBL1132968, “Substituent effects on the antibacterial activity of nitrogen-carbon-linked (azolylphenyl)oxazolidinones with expanded activity against the fastidious gram-negative organisms Haemophilus influenzae and Moraxella catarrhalis” (2000).

In brackets after ≈: the same amount, converted by molar mass.

What all share (format): functional
For experiment [1], the system named is Staphylococcus epidermidis. Put plainly: Inhibitory activity against Methicillin-resistant Staphylococcus epidermidis UC12084.
Experiment [2] relates to Mus musculus. Nature of the experiment: Dose(orally administered) required to cure 50% of Staphylococcus aureus infected mice. The following applies: po.
In a further experiment the test system is Streptococcus pneumoniae. Put plainly: Inhibitory activity against Streptococcus pneumoniae UC9912.
For experiment [3], the system named is Mus musculus. Put plainly: Dose(orally administered) required to cure 50% of Staphylococcus aureus infected mice in the presence of vancomycin. Conditions: po.
The next experiment has as its system Haemophilus influenzae. Put plainly: Inhibitory activity against Haemophilus influenzae UC30063.
Experiment [4] concerns Staphylococcus aureus. Nature of the experiment: Inhibitory activity against Methicillin-resistant Staphylococcus aureus UC6685.
For experiment [5], the system named is Staphylococcus aureus. Nature of the experiment: Inhibitory activity against Methicillin-susceptible Staphylococcus aureus UC9213.
The next experiment concerns Enterococcus faecalis. Nature of the experiment: Inhibitory activity against Enterococcus faecalis UC9217.
The next experiment relates to Moraxella catarrhalis. Nature of the experiment: Inhibitory activity against Moraxella catarrhalis UC30610.

`CC(=O)NC[C@H]1CN(c2ccc(-n3ccc(C=O)c3)c(F)c2)C(=O)O1`: the MIC in experiment [1] is 0.125 µg/mL (≈ 0.362 µM); in the experiment on Streptococcus pneumoniae it was below 0.06 µg/mL. In addition, the ED50 – broadly, the dose at which the effect has come halfway, by size or by number of responders – in the experiment with Mus musculus [2] was above 20 mg/kg/day; in the experiment on Mus musculus [3], 1.7 mg/kg/day.

For `CC(=O)NC[C@H]1CN(c2ccc(-n3ccc(CCCO)c3)c(F)c2)C(=O)O1`, the MIC in experiment [1] was 1 µg/mL (≈ 2.66 µM); with Haemophilus influenzae, above 16 µg/mL; in the experiment with Staphylococcus aureus [4], 4 µg/mL (≈ 10.7 µM); against Staphylococcus aureus [5] it was 4 µg/mL (≈ 10.7 µM); with Streptococcus pneumoniae, 0.5 µg/mL (≈ 1.33 µM); against Enterococcus faecalis, 2 µg/mL (≈ 5.33 µM). Also, the MIC in the experiment on Moraxella catarrhalis was 8 µg/mL (≈ 21.3 µM).

For the compound `CC(=O)NC[C@H]1CN(c2ccc(-n3nnc(/C=N/O)n3)c(F)c2)C(=O)O1`, the MIC was 1 µg/mL (≈ 2.75 µM) in experiment [1]; 16 µg/mL (≈ 44 µM) against Haemophilus influenzae; 4 µg/mL (≈ 11 µM) against Staphylococcus aureus [4]; 4 µg/mL (≈ 11 µM) in the experiment on Staphylococcus aureus [5]; 0.5 µg/mL (≈ 1.38 µM) against Streptococcus pneumoniae; 4 µg/mL (≈ 11 µM) against Enterococcus faecalis. In the experiment with Moraxella catarrhalis, this compound came in with an MIC of 8 µg/mL (≈ 22 µM).

For `CC(=O)NC[C@H]1CN(c2ccc(-n3ccc(C#N)n3)c(F)c2)C(=O)O1`, the MIC was determined as 0.5 µg/mL (≈ 1.46 µM) in experiment [1]; 16 µg/mL (≈ 46.6 µM) against Haemophilus influenzae; 1 µg/mL (≈ 2.91 µM) against Staphylococcus aureus [4]; 1 µg/mL (≈ 2.91 µM) in the experiment on Staphylococcus aureus [5]; 0.5 µg/mL (≈ 1.46 µM) in the experiment on Streptococcus pneumoniae; 2 µg/mL (≈ 5.83 µM) in the experiment with Enterococcus faecalis. Besides, in the experiment with Moraxella catarrhalis, the MIC was determined as 8 µg/mL (≈ 23.3 µM).

In the case of `CC(=O)NC[C@H]1CN(c2ccc(-n3ccc(NC(=O)OC(C)(C)C)n3)c(F)c2)C(=O)O1`, the MIC in [1] was 2 µg/mL (≈ 4.61 µM); against Haemophilus influenzae it was above 16 µg/mL; in the experiment on Staphylococcus aureus [4], 2 µg/mL (≈ 4.61 µM); against Staphylococcus aureus [5], 4 µg/mL (≈ 9.23 µM); in the experiment with Streptococcus pneumoniae, 0.5 µg/mL (≈ 1.15 µM); with Enterococcus faecalis, 2 µg/mL (≈ 4.61 µM). In the experiment on Moraxella catarrhalis, this compound had an MIC of 8 µg/mL (≈ 18.5 µM).

In the case of `CC(=O)NC[C@H]1CN(c2ccc(-n3nnc(C=O)n3)c(F)c2)C(=O)O1`, the MIC in experiment [1] amounted to 2 µg/mL (≈ 5.74 µM); against Haemophilus influenzae it was 16 µg/mL (≈ 45.9 µM); against Staphylococcus aureus [4], 4 µg/mL (≈ 11.5 µM); against Staphylococcus aureus [5], 8 µg/mL (≈ 23 µM); against Streptococcus pneumoniae, 1 µg/mL (≈ 2.87 µM); with Enterococcus faecalis, 16 µg/mL (≈ 45.9 µM). For the same compound, the MIC against Moraxella catarrhalis came out at 16 µg/mL (≈ 45.9 µM).

With `CC(=O)NC[C@H]1CN(c2ccc(-n3cc(NC(=O)OC(C)(C)C)cn3)c(F)c2)C(=O)O1`, the MIC was 2 µg/mL (≈ 4.61 µM) in [1]; above 16 µg/mL with Haemophilus influenzae; 4 µg/mL (≈ 9.23 µM) against Staphylococcus aureus [4]; 8 µg/mL (≈ 18.5 µM) against Staphylococcus aureus [5]; 1 µg/mL (≈ 2.31 µM) in the experiment with Streptococcus pneumoniae; 8 µg/mL (≈ 18.5 µM) against Enterococcus faecalis. In the experiment on Moraxella catarrhalis, the MIC is above 16 µg/mL.

For the compound `C#Cc1cnn(-c2ccc(N3C[C@H](CNC(C)=O)OC3=O)cc2F)c1`, the MIC in experiment [1] was 1 µg/mL (≈ 2.92 µM); in the experiment with Haemophilus influenzae, above 16 µg/mL; in the experiment on Staphylococcus aureus [4], 2 µg/mL (≈ 5.84 µM); in the experiment with Staphylococcus aureus [5], 2 µg/mL (≈ 5.84 µM); with Streptococcus pneumoniae, 0.5 µg/mL (≈ 1.46 µM); against Enterococcus faecalis, 2 µg/mL (≈ 5.84 µM). Further, the MIC in the experiment with Moraxella catarrhalis came to 8 µg/mL (≈ 23.4 µM).

On to `CC(=O)NC[C@H]1CN(c2ccc(-n3ccc(=O)[nH]3)c(F)c2)C(=O)O1`, for which the MIC in experiment [1] was 1 µg/mL (≈ 2.99 µM); with Haemophilus influenzae, 16 µg/mL (≈ 47.9 µM); in the experiment on Staphylococcus aureus [4] it was 8 µg/mL (≈ 23.9 µM); against Staphylococcus aureus [5], 8 µg/mL (≈ 23.9 µM); in the experiment on Streptococcus pneumoniae, 1 µg/mL (≈ 2.99 µM); in the experiment with Enterococcus faecalis, 8 µg/mL (≈ 23.9 µM). In addition, the MIC against Moraxella catarrhalis was determined as 8 µg/mL (≈ 23.9 µM).

On to `CC(=O)NC[C@H]1CN(c2ccc(-n3cnc(C)n3)c(F)c2)C(=O)O1`, for which the MIC in experiment [1] was 2 µg/mL (≈ 6 µM); against Haemophilus influenzae, above 16 µg/mL; in the experiment on Staphylococcus aureus [4] it was 4 µg/mL (≈ 12 µM); in the experiment with Staphylococcus aureus [5], 8 µg/mL (≈ 24 µM); in the experiment on Streptococcus pneumoniae it was 1 µg/mL (≈ 3 µM); with Enterococcus faecalis, 8 µg/mL (≈ 24 µM). Moreover, the MIC with Moraxella catarrhalis amounted to 16 µg/mL (≈ 48 µM).

In the case of `CC(=O)NC[C@H]1CN(c2ccc(-n3nccn3)c(F)c2)C(=O)O1`, the MIC was 1 µg/mL (≈ 3.13 µM) in experiment [1]; above 16 µg/mL against Haemophilus influenzae; 2 µg/mL (≈ 6.26 µM) in the experiment with Staphylococcus aureus [4]; 4 µg/mL (≈ 12.5 µM) in the experiment with Staphylococcus aureus [5]; 1 µg/mL (≈ 3.13 µM) in the experiment on Streptococcus pneumoniae; 4 µg/mL (≈ 12.5 µM) against Enterococcus faecalis. The compound further gave an MIC against Moraxella catarrhalis above 16 µg/mL.

With `CCOC(=O)CCc1ccn(-c2ccc(N3C[C@H](CNC(C)=O)OC3=O)cc2F)c1`, the MIC was 1 µg/mL (≈ 2.4 µM) in experiment [1]; above 16 µg/mL against Haemophilus influenzae; 4 µg/mL (≈ 9.58 µM) against Staphylococcus aureus [4]; 4 µg/mL (≈ 9.58 µM) with Staphylococcus aureus [5]; 0.5 µg/mL (≈ 1.2 µM) against Streptococcus pneumoniae; 2 µg/mL (≈ 4.79 µM) with Enterococcus faecalis. The compound also yielded an MIC in the experiment on Moraxella catarrhalis of 2 µg/mL (≈ 4.79 µM).

Regarding `CC(=O)NC[C@H]1CN(c2ccc(-n3cc(/C(C)=N\O)nn3)c(F)c2)C(=O)O1`, the MIC in experiment [1] worked out at 2 µg/mL (≈ 5.31 µM); in the experiment with Haemophilus influenzae, 16 µg/mL (≈ 42.5 µM); against Staphylococcus aureus [4], 4 µg/mL (≈ 10.6 µM); in the experiment on Staphylococcus aureus [5] it was 4 µg/mL (≈ 10.6 µM); in the experiment on Streptococcus pneumoniae, 0.5 µg/mL (≈ 1.33 µM); in the experiment on Enterococcus faecalis, 8 µg/mL (≈ 21.3 µM). This compound also yielded an MIC against Moraxella catarrhalis of 4 µg/mL (≈ 10.6 µM).

For `CC(=O)NC[C@H]1CN(c2ccc(-n3ccc(C(C)O)c3)c(F)c2)C(=O)O1` (stereo partly drawn), the MIC in experiment [1] was 4 µg/mL (≈ 11.1 µM); in the experiment on Haemophilus influenzae it was above 16 µg/mL; with Staphylococcus aureus [4] it was 16 µg/mL (≈ 44.3 µM); in the experiment on Staphylococcus aureus [5], 16 µg/mL (≈ 44.3 µM); in the experiment on Streptococcus pneumoniae, 2 µg/mL (≈ 5.53 µM); against Enterococcus faecalis, 8 µg/mL (≈ 22.1 µM). Also, the MIC against Moraxella catarrhalis is above 16 µg/mL.

For `CO/N=C(/C)c1ccn(-c2ccc(N3C[C@H](CNC(C)=O)OC3=O)cc2F)c1`, the MIC in experiment [1] is 1 µg/mL (≈ 2.57 µM); against Haemophilus influenzae, above 16 µg/mL; with Staphylococcus aureus [4], 2 µg/mL (≈ 5.15 µM); against Staphylococcus aureus [5] it was 4 µg/mL (≈ 10.3 µM); in the experiment with Streptococcus pneumoniae it was 0.5 µg/mL (≈ 1.29 µM); with Enterococcus faecalis it was 2 µg/mL (≈ 5.15 µM). This compound also had an MIC against Moraxella catarrhalis of 8 µg/mL (≈ 20.6 µM).

As to `CC(=O)NC[C@H]1CN(c2ccc(-n3cc(I)cn3)c(F)c2)C(=O)O1`, the MIC was 1 µg/mL (≈ 2.25 µM) in [1]; above 16 µg/mL in the experiment with Haemophilus influenzae; 2 µg/mL (≈ 4.5 µM) against Staphylococcus aureus [4]; 2 µg/mL (≈ 4.5 µM) in the experiment with Staphylococcus aureus [5]; 0.5 µg/mL (≈ 1.13 µM) with Streptococcus pneumoniae; 2 µg/mL (≈ 4.5 µM) against Enterococcus faecalis. In addition, in the experiment with Moraxella catarrhalis, the MIC was 8 µg/mL (≈ 18 µM).

`CC(=O)NC[C@H]1CN(c2ccc(-n3cnc(CO)n3)c(F)c2)C(=O)O1`: the MIC was found to be 2 µg/mL (≈ 5.73 µM) in [1]; 16 µg/mL (≈ 45.8 µM) with Haemophilus influenzae; 16 µg/mL (≈ 45.8 µM) against Staphylococcus aureus [4]; 16 µg/mL (≈ 45.8 µM) against Staphylococcus aureus [5]; 1 µg/mL (≈ 2.86 µM) against Streptococcus pneumoniae; 16 µg/mL (≈ 45.8 µM) against Enterococcus faecalis. In the experiment on Moraxella catarrhalis, this compound registered an MIC of 8 µg/mL (≈ 22.9 µM).

For the compound `CC(=O)NC[C@H]1CN(c2ccc(-n3cc(C(N)=O)nn3)c(F)c2)C(=O)O1`, the MIC in experiment [1] was 1 µg/mL (≈ 2.76 µM); in the experiment on Haemophilus influenzae, above 16 µg/mL; with Staphylococcus aureus [4] it was 4 µg/mL (≈ 11 µM); against Staphylococcus aureus [5] it was 4 µg/mL (≈ 11 µM); against Streptococcus pneumoniae, 0.5 µg/mL (≈ 1.38 µM); with Enterococcus faecalis it was 8 µg/mL (≈ 22.1 µM). For the same compound, the MIC in the experiment on Moraxella catarrhalis was 8 µg/mL (≈ 22.1 µM).

With `CC(=O)NC[C@H]1CN(c2ccc(-n3ccc(N)n3)c(F)c2)C(=O)O1`, the MIC in experiment [1] came to 1 µg/mL (≈ 3 µM); against Haemophilus influenzae, 16 µg/mL (≈ 48 µM); with Staphylococcus aureus [4], 4 µg/mL (≈ 12 µM); against Staphylococcus aureus [5], 2 µg/mL (≈ 6 µM); against Streptococcus pneumoniae, 0.5 µg/mL (≈ 1.5 µM); against Enterococcus faecalis it was 4 µg/mL (≈ 12 µM). In the experiment with Moraxella catarrhalis, this compound came in with an MIC of 16 µg/mL (≈ 48 µM).

For `CC(=O)NC[C@H]1CN(c2ccc(-n3cnc(C#N)n3)c(F)c2)C(=O)O1`, the MIC is 2 µg/mL (≈ 5.81 µM) in experiment [1]; 16 µg/mL (≈ 46.5 µM) in the experiment with Haemophilus influenzae; 2 µg/mL (≈ 5.81 µM) against Staphylococcus aureus [4]; 4 µg/mL (≈ 11.6 µM) against Staphylococcus aureus [5]; 1 µg/mL (≈ 2.9 µM) in the experiment with Streptococcus pneumoniae; 4 µg/mL (≈ 11.6 µM) against Enterococcus faecalis. In the experiment with Moraxella catarrhalis, this compound returned an MIC of 16 µg/mL (≈ 46.5 µM).

As for `CN[C@H](CC(C)C)C(=O)N[C@H]1C(=O)N[C@@H](CC(N)=O)C(=O)N[C@H]2C(=O)N[C@H]3C(=O)N[C@H](C(=O)N[C@H](C(=O)O)c4cc(O)cc(O)c4-c4cc3ccc4O)[C@H](O)c3ccc(c(Cl)c3)Oc3cc2cc(c3O[C@@H]2O[C@H](CO)[C@@H](O)[C@H](O)[C@H]2O[C@H]2C[C@](C)(N)[C@H](O)[C@H](C)O2)Oc2ccc(cc2Cl)[C@H]1O` [VANCOMYCIN], in the experiment with Mus musculus [2], the 50% effective dose (ED50) was 3.9 mg/kg/day.
